{"source": "patent US10526323B2", "about": "“Indazole and azaindazole substituted compounds as mGluR4 allosteric potentiators, compositions, and methods of treating neurological dysfunction” (Vanderbilt University, priority 2015, dated 2020)"}
{"biological_target": "mGluR4 (UniProt Q14833)", "test": "mGluR4 potentiation assay: increase in response to an EC20 concentration of agonist (species not given)", "type": "cell-based", "details": "EC50 for potentiation of mGluR4; table does not state human or rat", "summary_of_the_method": "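Human mGluR4 was expressed in CHO cells read with a Ca2+-sensitive dye; rat mGluR4 was co-expressed with GIRK in […] read by thallium flux. Potentiation is the rise over agonist-alone response, with EC50 and maximal potentiation from non-linear fits.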", "units": {"EC50": "nM"}}
{"compound": "CCc1nn(C)c2cc(Nc3n[nH]c4cccnc34)ccc12", "note": "[Example 24, N-(3-ethyl-1-methyl-1H-indazol-6-yl)-1H-pyrazolo[4,3-b]pyridin-3-amine]", "EC50": 38}
{"compound": "CC(C)Cn1nc(Cl)c2cc(Nc3n[nH]c4cccnc34)ccc21", "note": "[Example 274, N-(3-chloro-1-isobutyl-1H-indazol-5-yl)-1H-pyrazolo[4,3-b]pyridin-3-amine]", "EC50": 3020}
{"compound": "Cn1ncc2cc(Nc3n[nH]c4c3CCCC4)cc(Cl)c21", "note": "[Example 67, 7-chloro-1-methyl-N-(4,5,6,7-tetrahydro-1H-indazol-3-yl)-1H-indazol-5-amine]", "EC50": "> 10000"}
{"compound": "Cn1nc(C#N)c2ccc(Nc3n[nH]c4cccnc34)cc21", "note": "[Example 177, 1-methyl-6-(1H-pyrazolo[4,3-b]pyridin-3-ylamino)indazole-3-carbonitrile]", "EC50": 467}
{"compound": "Cc1nnc(Cn2nc(C)c3cc(Nc4n[nH]c5cccnc45)ccc32)o1", "note": "[Example 129, N-(3-methyl-1-((5-methyl-1,3,4-oxadiazol-2-yl)methyl)-1H-indazol-5-yl)-1H-pyrazolo[4,3-b]pyridin-3-amine]", "EC50": 1300}
{"compound": "Cc1cc(Cn2ncc3ncc(Nc4n[nH]c5ccccc45)cc32)no1", "note": "[Example 26, N-(1H-indazol-3-yl)-1-((5-methylisoxazol-3-yl)methyl)-1H-pyrazolo[4,3-b]pyridin-6-amine]", "EC50": "> 10000"}
{"compound": "Cc1cc(COc2nn(C)c3cc(Nc4n[nH]c5cccnc45)ccc23)on1", "note": "[Example 45, N-(1-methyl-3-((3-methylisoxazol-5-yl)methoxy)-1H-indazol-6-yl)-1H-pyrazolo[4,3-b]pyridin-3-amine]", "EC50": 104}
{"compound": "Cn1nc(OCc2ccncc2)c2ccc(Nc3n[nH]c4cccnc34)cc21", "note": "[Example 238, N-(1-methyl-3-(pyridin-4-ylmethoxy)-1H-indazol-6-yl)-1H-pyrazolo[4,3-b]pyridin-3-amine]", "EC50": 65.8}
{"compound": "Cn1ncc2cc(Nc3n[nH]c4c3CCCC4)ccc21", "note": "[Example 57, 1-methyl-N-(4,5,6,7-tetrahydro-1H-indazol-3-yl)-1H-indazol-5-amine]", "EC50": "> 10000"}
{"compound": "Cn1nc(C2(C)CC2)c2ccc(Nc3n[nH]c4nccnc34)cc21", "note": "[Example 29, N-(1-methyl-3-(1-methylcyclopropyl)-1H-indazol-6-yl)-1H-pyrazolo[3,4-b]pyrazin-3-amine]", "EC50": 25}
{"compound": "CC(C)Oc1nn(C)c2cc(Nc3n[nH]c4cccnc34)ccc12", "note": "[Example 44, N-(3-isopropoxy-1-methyl-1H-indazol-6-yl)-1H-pyrazolo[4,3-b]pyridin-3-amine]", "EC50": 413}
{"compound": "Cc1n[nH]c2ccc(Nc3n[nH]c4cccnc34)cc12", "note": "[Example 79]", "EC50": 813}
{"compound": "Cc1nn(C)c2ccc(Nc3n[nH]c4cccnc34)cc12", "note": "[Example 108, N-(1,3-dimethyl-1H-indazol-5-yl)-1H-pyrazolo[4,3-b]pyridin-3-amine]", "EC50": 345}
{"compound": "Cc1cc(Nc2n[nH]c3nccnc23)cc2c1cnn2C", "note": "[Example 51, N-(1,4-dimethyl-1H-indazol-6-yl)-1H-pyrazolo[3,4-b]pyrazin-3-amine]", "EC50": 150}
{"compound": "Cn1nc(C(=O)N2CCC(F)(F)C2)c2ccc(Nc3n[nH]c4cccnc34)cc21", "note": "[Example 172, (3,3-difluoropyrrolidin-1-yl)-[1-methyl-6-(1H-pyrazolo[4,3-b]pyridin-3-ylamino)indazol-3-yl]methanone]", "EC50": 289}
{"compound": "Cc1c2cc(Nc3n[nH]c4cccnc34)ccc2nn1C", "note": "[Example 101, N-(2,3-dimethyl-2H-indazol-5-yl)-1H-pyrazolo[4,3-b]pyridin-3-amine]", "EC50": "> 10000"}
{"compound": "Cc1nn(C2CCCC2)c2ncc(Nc3n[nH]c4cccnc34)cc12", "note": "[Example 254, 1-cyclopentyl-3-methyl-N-(1H-pyrazolo[4,3-b]pyridin-3-yl)pyrazolo[3,4-b]pyridin-5-amine]", "EC50": "> 10000"}
{"compound": "Cc1nn(C(C)C)c2cc(Nc3n[nH]c4ccccc34)ccc12", "note": "[Example 19, N-(1-isopropyl-3-methyl-1H-indazol-6-yl)-1H-indazol-3-amine]", "EC50": "> 10000"}
{"compound": "Cc1cc(Cn2nc(Cl)c3cc(Nc4n[nH]c5cccnc45)ccc32)on1", "note": "[Example 277, N-(3-chloro-1-((3-methylisoxazol-5-yl)methyl)-1H-indazol-5-yl)-1H-pyrazolo[4,3-b]pyridin-3-amine]", "EC50": 310}
{"compound": "Cn1nc(C(=O)NC2CC(F)(F)C2)c2ccc(Nc3n[nH]c4cccnc34)cc21", "note": "[Example 174]", "EC50": 116}
{"compound": "CC1CCC(=O)N1c1nn(C)c2cc(Nc3n[nH]c4cccnc34)ccc12", "note": "(stereo not shown) [Example 42, 1-(6-((1H-pyrazolo[4,3-b]pyridin-3-yl)amino)-1-methyl-1H-indazol-3-yl)-5-methylpyrrolidin-2-one]", "EC50": 4000}
{"compound": "CC(C)n1ncc2cc(Nc3n[nH]c4nccnc34)cnc21", "note": "[Example 153, N-(1-isopropyl-1H-pyrazolo[3,4-b]pyridin-5-yl)-1H-pyrazolo[3,4-b]pyrazin-3-amine]", "EC50": 413}
{"compound": "Cn1ncc2c(Cl)cc(Nc3n[nH]c4nccnc34)cc21", "note": "[Example 8, N-(4-chloro-1-methyl-1H-indazol-6-yl)-1H-pyrazolo[3,4-b]pyrazin-3-amine]", "EC50": 16}
{"compound": "Cn1ncc2cc(Nc3n[nH]c4cccnc34)cc(Cl)c21", "note": "[Example 63, N-(7-chloro-1-methyl-1H-indazol-5-yl)-1H-pyrazolo[4,3-b]pyridin-3-amine]", "EC50": 85}
{"compound": "Cc1nn(C(C)C)c2ccc(Nc3n[nH]c4cccnc34)cc12", "note": "[Example 61, N-(1-isopropyl-3-methyl-1H-indazol-5-yl)-1H-pyrazolo[4,3-b]pyridin-3-amine]", "EC50": 133}
{"compound": "Cc1nn(C)c2ncc(Nc3n[nH]c4cccnc34)cc12", "note": "[Example 268, N-(1,3-dimethyl-1H-pyrazolo[3,4-b]pyridin-5-yl)-1H-pyrazolo[4,3-b]pyridin-3-amine]", "EC50": "> 30000"}
{"compound": "Cn1nc(OCCN2CCOCC2)c2c(Cl)cc(Nc3n[nH]c4cccnc34)cc21", "note": "[Example 209, N-[4-chloro-1-methyl-3-(2-morpholinoethoxy)indazol-6-yl]-1H-pyrazolo[4,3-b]pyridin-3-amine]", "EC50": 322}
{"compound": "Cc1nn(CC2CCC2)c2ccc(Nc3n[nH]c4ccccc34)cc12", "note": "[Example 71, N-(1-(cyclobutylmethyl)-3-methyl-1H-indazol-5-yl)-1H-indazol-3-amine]", "EC50": 342}
{"compound": "Cc1nn(C(C)C)c2ncc(Nc3n[nH]c4ccccc34)cc12", "note": "[Example 269, N-(1H-indazol-3-yl)-1-isopropyl-3-methyl-1H-pyrazolo[3,4-b]pyridin-5-amine]", "EC50": 2550}
{"compound": "CCC(C)n1nc2ccc(Nc3n[nH]c4cccnc34)cc2c1C", "note": "(stereo not shown) [Example 105, N-(2-(sec-butyl)-3-methyl-2H-indazol-5-yl)-1H-pyrazolo[4,3-b]pyridin-3-amine]", "EC50": "> 10000"}
{"compound": "CCC(F)(F)Cn1nc(C)c2cc(Nc3n[nH]c4cccnc34)ccc21", "note": "[Example 136, N-(1-(2,2-difluorobutyl)-3-methyl-1H-indazol-5-yl)-1H-pyrazolo[4,3-b]pyridin-3-amine]", "EC50": 253}
{"compound": "Cn1nc(C(=O)N2CCCC(F)(F)C2)c2ccc(Nc3n[nH]c4cccnc34)cc21", "note": "[Example 160, (3,3-difluoro-1-piperidyl)-[1-methyl-6-(1H-pyrazolo[4,3-b]pyridin-3-ylamino)indazol-3-yl]methanone]", "EC50": 888}
{"compound": "Clc1cc(Nc2n[nH]c3cccnc23)cc2cn(CC3CCC3)nc12", "note": "[Example 66, N-(7-chloro-2-(cyclobutylmethyl)-2H-indazol-5-yl)-1H-pyrazolo[4,3-b]pyridin-3-amine]", "EC50": 117}
{"compound": "Cc1nn(CCO)c2ncc(Nc3n[nH]c4cccnc34)cc12", "note": "[Example 256, 2-[3-methyl-5-(1H-pyrazolo[4,3-b]pyridin-3-ylamino)pyrazolo[3,4-b]pyridin-1-yl]ethanol]", "EC50": "> 10000"}
